Measured values: patent US10519134B2, “Pyrazole compounds and methods of making and using same” (Lundbeck La Jolla Research Center, Inc., priority 2015, dated 2019)

Legend:
Format in all cases: biochemical
[1] = target: T1, MAGL (Homo sapiens, UniProt Q99685); assay: In vitro competitive activity-based protein profiling (human), MAGL gel band
T1 construct: Proteomes (human prefrontal cortex or cell membrane fractions); from tissue; host or cells: human prefrontal cortex (or cell membrane fractions)
T1 sequence (Q99685 1-303): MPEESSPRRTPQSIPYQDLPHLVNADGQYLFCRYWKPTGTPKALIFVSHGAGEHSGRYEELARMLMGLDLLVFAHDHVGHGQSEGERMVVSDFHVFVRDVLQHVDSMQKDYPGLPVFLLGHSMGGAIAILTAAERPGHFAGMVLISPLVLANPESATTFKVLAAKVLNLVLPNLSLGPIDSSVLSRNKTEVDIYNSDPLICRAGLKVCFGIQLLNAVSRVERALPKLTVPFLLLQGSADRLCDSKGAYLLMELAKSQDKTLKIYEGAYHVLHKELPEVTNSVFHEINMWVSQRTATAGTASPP
Summary of the method: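 Human prefrontal cortex or cell membrane proteomes (1.0-2.0 mg/mL protein) preincubated with inhibitors 30 min at 37° C, then labelled with FP-Rh or JW912 probe 30 min at room temperature. Residual MAGL activity read as fluorescent gel-band intensity after SDS-PAGE.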

[2] = target: T2, FAAH (Mus musculus, UniProt O08914); assay: In vitro competitive activity-based protein profiling (mouse), FAAH gel band; settings: for IC50: mouse; for inhibition at 1 µM: read-out: FAAH % inh. 1 μM
T2 construct: Proteomes (mouse brain membrane fraction or cell lysates); from tissue; host or cells: mouse brain membrane fraction (or cell lysates)
T2 sequence (O08914 1-579): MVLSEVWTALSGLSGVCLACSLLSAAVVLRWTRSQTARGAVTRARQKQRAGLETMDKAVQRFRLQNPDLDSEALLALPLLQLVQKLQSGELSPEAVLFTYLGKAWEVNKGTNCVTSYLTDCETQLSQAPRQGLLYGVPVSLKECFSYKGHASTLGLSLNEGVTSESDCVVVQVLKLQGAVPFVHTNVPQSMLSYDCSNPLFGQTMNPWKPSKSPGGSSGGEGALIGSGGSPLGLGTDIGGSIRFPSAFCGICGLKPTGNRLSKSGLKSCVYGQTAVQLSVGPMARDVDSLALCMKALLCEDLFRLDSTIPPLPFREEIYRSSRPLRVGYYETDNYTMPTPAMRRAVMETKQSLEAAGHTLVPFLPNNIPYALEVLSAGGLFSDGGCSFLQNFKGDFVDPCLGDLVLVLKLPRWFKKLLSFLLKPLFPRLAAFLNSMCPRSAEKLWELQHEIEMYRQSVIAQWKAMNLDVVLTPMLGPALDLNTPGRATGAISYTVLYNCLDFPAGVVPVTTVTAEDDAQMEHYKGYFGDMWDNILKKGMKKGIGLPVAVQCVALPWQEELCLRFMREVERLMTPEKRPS
Summary of the method: (§1)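 Mouse brain membrane proteome or cell lysate (1.0 mg/mL protein) preincubated 30 min at 37 °C with varying inhibitor concentrations, then labelled 30 min at 37 °C with FP-Rh or HT-01 probe (50 μM stock). After SDS-PAGE, activity taken from fluorescent intensity of the MAGL and FAAH gel bands.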

[3] = target: T3, MAGL (Mus musculus, UniProt O35678); assay: In vitro competitive activity-based protein profiling (mouse), MAGL gel band; settings: for IC50: mouse; for inhibition at 1 µM: read-out: MAGL % inh. 1 μM
T3 construct: Proteomes (mouse brain membrane fraction or cell lysates); from tissue; host or cells: mouse brain membrane fraction (or cell lysates)
T3 sequence (O35678 1-303): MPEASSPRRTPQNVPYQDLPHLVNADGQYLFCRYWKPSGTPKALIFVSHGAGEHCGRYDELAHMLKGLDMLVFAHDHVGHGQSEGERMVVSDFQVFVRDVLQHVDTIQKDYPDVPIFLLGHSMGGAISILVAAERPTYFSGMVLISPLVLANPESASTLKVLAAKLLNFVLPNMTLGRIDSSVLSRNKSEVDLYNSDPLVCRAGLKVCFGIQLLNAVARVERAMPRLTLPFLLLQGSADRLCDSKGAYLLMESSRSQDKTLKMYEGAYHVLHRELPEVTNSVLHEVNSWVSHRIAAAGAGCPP
Summary of the method: as §1

SMILES | IC50 [1] [nM] | IC50 [2] [nM] | inhibition at 1 µM [2] [%] | IC50 [3] [nM] | inhibition at 1 µM [3] [%] | inhibition at 1 µM ([1]; at 1 μM, read-out: MAGL human % inh at 1 μM) [%]
CC(=O)NC1CCN(c2cc(C(F)(F)F)ccc2CN2CCN(C(=O)n3ccc(NS(C)(=O)=O)n3)CC2)CC1 [Example 269, N-(1-(2-((4-(3-(methylsulfonamido)-1H-pyrazole-1-carbonyl)piperazin-1-yl)methyl)-5-(trifluoromethyl)phenyl)piperidin-4-yl)acetamide] | ≤ 100 | 1000 to 10000 | 0 to 25 | ≤ 100 | ≥ 75 | –
CS(=O)(=O)Nc1ccn(C(=O)N2CCN(Cc3ccc(C(F)(F)F)c(N4CCC(F)CC4)c3)CC2)n1 [Example 271, N-(1-(4-(3-(4-fluoropiperidin-1-yl)-4-(trifluoromethyl)benzyl)piperazine-1-carbonyl)-1H-pyrazol-3-yl) methanesulfonamide] | ≤ 100 | – | 0 to 25 | – | ≥ 75 | –
CS(=O)(=O)Nc1ccn(C(=O)N2CCN(Cc3ccc(N4CCCC4)c(Cl)c3)CC2)n1 [Example 166, N-(1-(4-(3-chloro-4-(pyrrolidin-1-yl)benzyl)piperazine-1-carbonyl)-1H-pyrazol-3-yl) methanesulfonamide] | ≤ 100 | – | 0 to 25 | – | ≥ 75 | –
CS(=O)(=O)Nc1ccn(C(=O)N2CCC3(CCCN3Cc3cc(Cl)cc(C(F)(F)F)c3)CC2)n1 [Example 198, N-(1-(1-(3-chloro-5-(trifluoromethyl)benzyl)-1,8-diazaspiro[4.5]decane-8-carbonyl)-1H-pyrazol-3-yl) methanesulfonamide] | ≤ 100 | – | 25 to 50 | – | ≥ 75 | –
CC(C)n1cc(-c2cc(CN3CCN(C(=O)n4ccc(NS(C)(=O)=O)n4)CC3)ccc2Cl)cn1 [Example 237, N-(1-(4-(4-chloro-3-(1-isopropyl-1H-pyrazol-4-yl)benzyl)piperazine-1-carbonyl)-1H-pyrazol-3-yl) methanesulfonamide] | ≤ 100 | – | 0 to 25 | – | ≥ 75 | –
CS(=O)(=O)Nc1ccn(C(=O)N2CCN(Cc3ccc(Cl)cc3N3CCC(F)CC3)CC2)n1 [Example 227, N-(1-(4-(4-chloro-2-(4-fluoropiperidin-1-yl)benzyl)piperazine-1-carbonyl)-1H-pyrazol-3-yl) methanesulfonamide] | ≤ 100 | – | 0 to 25 | – | ≥ 75 | –
CS(=O)(=O)Nc1ccn(C(=O)N2CCN(Cc3ccc(C(F)(F)F)cc3N3C4CCC3COC4)CC2)n1 [Example 206, N-(1-(4-(2-(3-oxa-8-azabicyclo[3.2.1]octan-8-yl)-4-(trifluoromethyl)benzyl)piperazine-1-carbonyl)-1H-pyrazol-3-yl) methanesulfonamide] | ≤ 100 | – | 0 to 25 | – | ≥ 75 | –
CS(=O)(=O)Nc1ccn(C(=O)N2CCN(Cc3ccc(Cl)cc3N3CCC4(CC3)CN(S(C)(=O)=O)C4)CC2)n1 [Example 230, N-(1-(4-(4-chloro-2-(2-(methylsulfonyl)-2,7-diazaspiro[3.5]nonan-7-yl)benzyl)piperazine-1-carbonyl)-1H pyrazol-3-yl) methanesulfonamide] | ≤ 100 | – | 0 to 25 | – | ≥ 75 | –
CS(=O)(=O)Nc1ccn(C(=O)N2CCN(Cc3ccc(C(F)(F)F)cc3-c3ncon3)CC2)n1 [Example 112, N-(1-(4-(2-(1,2,4-oxadiazol-3-yl)-4-(trifluoromethyl)benzyl)piperazine-1-carbonyl)-1H-pyrazol-3-yl)methanesulfonamide] | ≤ 100 | – | 0 to 25 | – | ≥ 75 | –
CS(=O)(=O)Nc1ccn(C(=O)N2CCN(Cc3cc(C(F)(F)F)ccc3N3CCCC3)CC2)n1 [Example 180, N-(1-(4-(2-(pyrrolidin-1-yl)-5-(trifluoromethyl)benzyl)piperazine-1-carbonyl)-1H-pyrazol-3-yl) methanesulfonamide] | ≤ 100 | – | 0 to 25 | – | ≥ 75 | –
CS(=O)(=O)Nc1ccn(C(=O)N2CCC3(CCCN3Cc3ccc(C(F)(F)F)cc3N3CCC(F)CC3)CC2)n1 [Example 178, N-(1-(1-(2-(4-fluoropiperidin-1-yl)-4-(trifluoromethyl)benzyl)-1,8-diazaspiro[4.5]decane-8-carbonyl)-1H-pyrazol-3-yl) methanesulfonamide] | ≤ 100 | – | 0 to 25 | – | ≥ 75 | –
CC(C)(O)C1CCN(c2cc(C(F)(F)F)ccc2CN2CCN(C(=O)n3ccc(NS(C)(=O)=O)n3)CC2)CC1 [Example 270, N-(1-(4-(2-(4-(2-hydroxypropan-2-yl)piperidin-1-yl)-4-(trifluoromethyl)benzyl)piperazine-1-carbonyl)-1H-pyrazol-3-yl) methanesulfonamide] | ≤ 100 | 1000 to 10000 | 0 to 25 | ≤ 100 | ≥ 75 | –

Other lines, results leading:

IC50 [1] [nM] | IC50 [2] [nM] | inhibition at 1 µM [2] [%] | IC50 [3] [nM] | inhibition at 1 µM [3] [%] | inhibition at 1 µM ([1]; at 1 μM, read-out: MAGL human % inh at 1 μM) [%] | SMILES
100 to 1000 | – | 0 to 25 | – | ≥ 75 | – | CS(=O)(=O)Nc1ccn(C(=O)N2CCC3(CCCN3Cc3ccc(N4CCCC4)c(C(F)(F)F)c3)CC2)n1 [Example 159, N-(1-(1-(4-(pyrrolidin-1-yl)-3-(trifluoromethyl)benzyl)-1,8-diazaspiro[4.5]decane-8-carbonyl)-1H-pyrazol-3-yl) methanesulfonamide]
≤ 100 | 1000 to 10000 | 0 to 25 | 100 to 1000 | ≥ 75 | – | CS(=O)(=O)Nc1ccn(C(=O)N2CCN(Cc3ccc(C(F)(F)F)cc3N3CCOCC3)CC2)n1 [Example 140, N-(1-(4-(2-morpholino-4-(trifluoromethyl)benzyl)piperazine-1-carbonyl)-1H-pyrazol-3-yl) methanesulfonamide]
– | – | 0 to 25 | – | 0 to 25 | 25 | CS(=O)(=O)Nc1ccn(C(=O)N2CCN(Cc3ccc(C(F)(F)F)c(N4CCC(C(N)=O)CC4)c3)CC2)n1 [Example 291, 1-(5-((4-(3-(methylsulfonamido)-1H-pyrazole-1-carbonyl)piperazin-1-yl)methyl)-2-(trifluoromethyl)phenyl)piperidine-4-carboxamide]
100 to 1000 | – | 0 to 25 | – | ≥ 75 | – | CC(=O)N1CC2CN(c3cc(CN4CCN(C(=O)n5ccc(NS(C)(=O)=O)n5)CC4)ccc3Cl)CC2C1 (stereo not drawn) [Example 215, N-(1-(4-(3-(5-acetylhexahydro-pyrrolo[3,4-c]pyrrol-2(1H)-yl)-4-chlorobenzyl)piperazine-1-carbonyl)-1H-pyrazol-3-yl) methanesulfonamide]
≤ 100 | – | 0 to 25 | – | ≥ 75 | – | CS(=O)(=O)Nc1ccn(C(=O)N2CCN(Cc3ccc(C(F)(F)F)cc3N3CCN(C4CC4)CC3)CC2)n1 [Example 172, N-(1-(4-(2-(4-cyclopropylpiperazin-1-yl)-4-(trifluoromethyl)benzyl)piperazine-1-carbonyl)-1H-pyrazol-3-yl) methanesulfonamide]
100 to 1000 | – | 0 to 25 | – | ≥ 75 | – | CS(=O)(=O)Nc1ccn(C(=O)N2CCN(Cc3ccc(C(F)(F)F)cc3-c3ccc(C(F)(F)F)nc3)CC2)n1 [Example 212, N-(1-(4-(4-(trifluoromethyl)-2-(6-(trifluoromethyl)pyridin-3-yl)benzyl)piperazine-1-carbonyl)-1H-pyrazol-3-yl) methanesulfonamide]
≤ 100 | – | 0 to 25 | – | ≥ 75 | – | CS(=O)(=O)Nc1ccn(C(=O)N2CCN(Cc3ccc(N4CCOCC4)c(C(F)(F)F)c3)CC2)n1 [Example 167, N-[1-[(4-[[4-(morpholin-4-yl)-3-(trifluoromethyl)phenyl]methyl]piperazin-1-yl)carbonyl]-1H-pyrazol-3-yl] methanesulfonamide]
